Article PMC6597268 (Biochemistry, 2019)
Values belong to the molecule of their own block, whether it stands above or below them.

How the values were obtained:
MitE = target: T1, MitE (Streptomyces lavendulae, UniProt Q9X5R7); assay: HPLC of AHBA released from MmcB by KOH or cysteamine; type: biochemical; conditions: holo-MmcB as acceptor
T1 sequence (Q9X5R7 1-707): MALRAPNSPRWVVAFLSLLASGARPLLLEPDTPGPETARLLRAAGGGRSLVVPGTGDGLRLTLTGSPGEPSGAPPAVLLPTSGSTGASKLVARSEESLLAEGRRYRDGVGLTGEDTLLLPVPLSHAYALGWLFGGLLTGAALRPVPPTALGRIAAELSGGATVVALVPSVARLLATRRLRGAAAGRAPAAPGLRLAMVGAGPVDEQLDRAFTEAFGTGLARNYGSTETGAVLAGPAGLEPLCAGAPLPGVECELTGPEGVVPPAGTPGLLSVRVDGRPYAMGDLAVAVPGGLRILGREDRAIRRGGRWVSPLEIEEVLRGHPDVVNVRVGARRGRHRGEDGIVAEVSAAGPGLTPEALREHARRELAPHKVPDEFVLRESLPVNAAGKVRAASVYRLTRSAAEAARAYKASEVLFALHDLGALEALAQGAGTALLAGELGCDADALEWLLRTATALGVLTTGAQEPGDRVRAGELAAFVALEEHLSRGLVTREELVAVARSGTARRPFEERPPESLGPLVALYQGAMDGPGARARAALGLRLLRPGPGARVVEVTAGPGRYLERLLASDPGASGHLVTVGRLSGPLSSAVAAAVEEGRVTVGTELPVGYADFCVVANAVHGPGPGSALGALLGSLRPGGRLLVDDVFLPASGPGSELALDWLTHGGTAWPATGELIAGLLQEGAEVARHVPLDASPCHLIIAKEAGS
T1 sequence (Q9X5S0 1-93 partner): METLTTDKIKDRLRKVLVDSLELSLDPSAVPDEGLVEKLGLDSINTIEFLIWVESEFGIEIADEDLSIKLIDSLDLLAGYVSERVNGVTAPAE

MitB = MitB (Streptomyces lavendulae, UniProt Q9WW09); assay: anion exchange HPLC steady-state kinetics, Michaelis-Menten fit; type: biochemical; conditions: pseudo-first order

SMILES: Nc1cc(O)cc(C(=O)O)c1 [AHBA]
HPLC of AHBA released from MmcB by KOH or cysteamine (MitE; ATP): These evidences in combination suggest that MitE catalyzes the loading of AHBA onto holo-MmcB

SMILES: Nc1ncnc2c1ncn2[C@@H]1O[C@H](COP(=O)(O)OP(=O)(O)OP(=O)(O)O)[C@@H](O)[C@H]1O [ATP]
HPLC of AHBA released from MmcB by KOH or cysteamine (MitE; AHBA): we investigated the ability of MitE to load AHBA to holo-MmcB in the presence of ATP

Km (MitB; 2 mM UDP-GlcNAc as donor): 10 ± 3.3 mM
SMILES: CC(=O)NCCSC(=O)c1cc(N)cc(O)c1 [SNAc-AHBA]

Km (MitB; 2 mM SNAc-AHBA (unsaturating) as acceptor): 0.94 ± 0.15 mM
SMILES: CC(=O)N[C@H]1[C@@H](OP(=O)(O)OP(=O)(O)OC[C@H]2O[C@@H](n3ccc(=O)[nH]c3=O)[C@H](O)[C@@H]2O)O[C@H](CO)[C@@H](O)[C@@H]1O [UDP-GlcNAc]
